Measurements taken from PubChem BioAssay (NCI).
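Dose response: 5 concentrations. Exposure: 48 h. Format: 96-well plates. Endpoint: linear interpolation; highest concentration if not reached. Abbreviation: GI50, concentration required for 50% inhibition of growth. The concentration for full growth arrest is given as TGI.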

Experiments:
Assay in all cases: inhibition of tumour cell growth, NCI panel, 48 h
NCI-H23 lung = test system: NCI-H23 lung
786-0 renal = test system: 786-0 renal
M14 melanoma = test system: M14 melanoma
SNB-75 CNS = test system: SNB-75 CNS
HOP-62 NSCLC = test system: HOP-62 NSCLC
SK-MEL-5 melanoma = test system: SK-MEL-5 melanoma
RPMI-8226 leukemia = test system: RPMI-8226 leukemia
A498 renal = test system: A498 renal
UACC-62 melanoma = test system: UACC-62 melanoma
SF-539 CNS = test system: SF-539 CNS
HT29 colon = test system: HT29 colon
MDA-MB-231 breast = test system: MDA-MB-231 breast
MCF7 breast = test system: MCF7 breast
SN12C renal = test system: SN12C renal
RXF 393 renal = test system: RXF 393 renal
CCRF-CEM leukemia = test system: CCRF-CEM leukemia
PC-3 prostate = test system: PC-3 prostate
TK-10 renal = test system: TK-10 renal
OVCAR-3 ovarian = test system: OVCAR-3 ovarian
UACC-257 melanoma = test system: UACC-257 melanoma
ACHN renal = test system: ACHN renal
SK-MEL-28 melanoma = test system: SK-MEL-28 melanoma
SK-OV-3 ovarian = test system: SK-OV-3 ovarian
K-562 leukemia = test system: K-562 leukemia
COLO 205 colon = test system: COLO 205 colon
LOX IMVI melanoma = test system: LOX IMVI melanoma
HS 578T breast = test system: HS 578T breast
HL-60(TB) leukemia = test system: HL-60(TB) leukemia
NCI/ADR-RES ovarian = test system: NCI/ADR-RES ovarian
HCT-116 colon = test system: HCT-116 colon
U251 CNS = test system: U251 CNS
EKVX NSCLC = test system: EKVX NSCLC
OVCAR-8 ovarian = test system: OVCAR-8 ovarian
SF-268 CNS = test system: SF-268 CNS
MALME-3M melanoma = test system: MALME-3M melanoma
NCI-H226 lung = test system: NCI-H226 lung
SK-MEL-2 melanoma = test system: SK-MEL-2 melanoma
IGROV1 ovarian = test system: IGROV1 ovarian
HCC-2998 colon = test system: HCC-2998 colon
SNB-19 CNS = test system: SNB-19 CNS
KM12 colon = test system: KM12 colon
UO-31 renal = test system: UO-31 renal
T-47D breast = test system: T-47D breast
NCI-H460 lung = test system: NCI-H460 lung
OVCAR-5 ovarian = test system: OVCAR-5 ovarian
MDA-MB-435 = test system: MDA-MB-435
CAKI-1 renal = test system: CAKI-1 renal
BT-549 breast = test system: BT-549 breast
A549 NSCLC = test system: A549 NSCLC
DU-145 prostate = test system: DU-145 prostate
NCI-H522 lung = test system: NCI-H522 lung
HOP-92 NSCLC = test system: HOP-92 NSCLC
SW-620 colon = test system: SW-620 colon
MDA-MB-468 breast = test system: MDA-MB-468 breast
SF-295 CNS = test system: SF-295 CNS
HCT-15 colon = test system: HCT-15 colon

SMILES: CN(C)c1nc(NCCNS(=O)(=O)c2ccc(C3=Nc4c(N)nc(N)nc4NC(c4ccc(Cl)cc4)C3)cc2)nc(Nc2ccc(F)cc2)n1 (configuration not stated)
- GI50 (NCI-H23 lung): 72.7 µM
- TGI (NCI-H23 lung): > 100 µM
- GI50 (786-0 renal): 6.21 µM
- TGI (786-0 renal): > 100 µM
- GI50 (M14 melanoma): 3.15 µM
- TGI (M14 melanoma): 11.5 µM
- GI50 (SNB-75 CNS): 3.76 µM
- TGI (SNB-75 CNS): > 100 µM
- GI50 (HOP-62 NSCLC): > 100 µM
- TGI (HOP-62 NSCLC): > 100 µM
- GI50 (SK-MEL-5 melanoma): 3.45 µM
- TGI (SK-MEL-5 melanoma): 14.3 µM
- GI50 (RPMI-8226 leukemia): 3.19 µM
- TGI (RPMI-8226 leukemia): > 100 µM
- GI50 (A498 renal): 58.4 µM
- TGI (A498 renal): > 100 µM
- GI50 (UACC-62 melanoma): 6.46 µM
- TGI (UACC-62 melanoma): > 100 µM
- GI50 (SF-539 CNS): 3.3 µM
- TGI (SF-539 CNS): > 100 µM
- GI50 (HT29 colon): 2.68 µM
- TGI (HT29 colon): 7.54 µM
- GI50 (MDA-MB-231 breast): 3.73 µM
- TGI (MDA-MB-231 breast): 65.7 µM
- GI50 (MCF7 breast): 2.89 µM
- TGI (MCF7 breast): > 100 µM
- GI50 (SN12C renal): 7.38 µM
- TGI (SN12C renal): > 100 µM
- GI50 (RXF 393 renal): 2.27 µM
- TGI (RXF 393 renal): 8.75 µM
- GI50 (CCRF-CEM leukemia): 2.92 µM
- TGI (CCRF-CEM leukemia): > 100 µM
- GI50 (PC-3 prostate): 3.44 µM
- TGI (PC-3 prostate): > 100 µM
- GI50 (TK-10 renal): > 100 µM
- TGI (TK-10 renal): > 100 µM
- GI50 (OVCAR-3 ovarian): 7.45 µM
- TGI (OVCAR-3 ovarian): > 100 µM
- GI50 (UACC-257 melanoma): 8.07 µM
- TGI (UACC-257 melanoma): > 100 µM
- GI50 (ACHN renal): > 100 µM
- TGI (ACHN renal): > 100 µM
- GI50 (SK-MEL-28 melanoma): 8.22 µM
- TGI (SK-MEL-28 melanoma): > 100 µM
- GI50 (SK-OV-3 ovarian): > 100 µM
- TGI (SK-OV-3 ovarian): > 100 µM
- GI50 (K-562 leukemia): 3.08 µM
- TGI (K-562 leukemia): > 100 µM
- GI50 (COLO 205 colon): 5.65 µM
- TGI (COLO 205 colon): 25.6 µM
- GI50 (LOX IMVI melanoma): 1.77 µM
- TGI (LOX IMVI melanoma): 3.55 µM
- GI50 (HS 578T breast): 7.15 µM
- TGI (HS 578T breast): > 100 µM
- GI50 (HL-60(TB) leukemia): 2.72 µM
- TGI (HL-60(TB) leukemia): 13.3 µM
- GI50 (NCI/ADR-RES ovarian): > 100 µM
- TGI (NCI/ADR-RES ovarian): > 100 µM
- GI50 (HCT-116 colon): 3.77 µM
- TGI (HCT-116 colon): > 100 µM
- GI50 (U251 CNS): 5.14 µM
- TGI (U251 CNS): > 100 µM
- GI50 (EKVX NSCLC): 5.05 µM
- TGI (EKVX NSCLC): > 100 µM
- GI50 (OVCAR-8 ovarian): > 100 µM
- TGI (OVCAR-8 ovarian): > 100 µM
- GI50 (SF-268 CNS): 5.74 µM
- TGI (SF-268 CNS): > 100 µM
- GI50 (MALME-3M melanoma): 3.86 µM
- TGI (MALME-3M melanoma): 19.2 µM
- GI50 (NCI-H226 lung): > 100 µM
- TGI (NCI-H226 lung): > 100 µM
- GI50 (SK-MEL-2 melanoma): 3.34 µM
- TGI (SK-MEL-2 melanoma): 14 µM
- GI50 (IGROV1 ovarian): 9.95 µM
- TGI (IGROV1 ovarian): > 100 µM
- GI50 (HCC-2998 colon): 3.14 µM
- TGI (HCC-2998 colon): 18.4 µM
- GI50 (SNB-19 CNS): 5.67 µM
- TGI (SNB-19 CNS): > 100 µM
- GI50 (KM12 colon): 3.98 µM
- TGI (KM12 colon): > 100 µM
- GI50 (UO-31 renal): > 100 µM
- TGI (UO-31 renal): > 100 µM
- GI50 (T-47D breast): 7.93 µM
- TGI (T-47D breast): > 100 µM
- GI50 (NCI-H460 lung): 4.49 µM
- TGI (NCI-H460 lung): > 100 µM
- GI50 (OVCAR-5 ovarian): > 100 µM
- TGI (OVCAR-5 ovarian): > 100 µM
- GI50 (MDA-MB-435): 5.17 µM
- TGI (MDA-MB-435): > 100 µM
- GI50 (CAKI-1 renal): 8.07 µM
- TGI (CAKI-1 renal): > 100 µM
- GI50 (BT-549 breast): 3.96 µM
- TGI (BT-549 breast): 28.7 µM
- GI50 (A549 NSCLC): > 100 µM
- TGI (A549 NSCLC): > 100 µM
- GI50 (DU-145 prostate): > 100 µM
- TGI (DU-145 prostate): > 100 µM
- GI50 (NCI-H522 lung): 16 µM
- TGI (NCI-H522 lung): > 100 µM
- GI50 (HOP-92 NSCLC): 2.53 µM
- TGI (HOP-92 NSCLC): 13.2 µM
- GI50 (SW-620 colon): 5.95 µM
- TGI (SW-620 colon): > 100 µM
- GI50 (MDA-MB-468 breast): 1.92 µM
- TGI (MDA-MB-468 breast): 4.92 µM
- GI50 (SF-295 CNS): 6.2 µM
- TGI (SF-295 CNS): > 100 µM
- GI50 (HCT-15 colon): > 100 µM
- TGI (HCT-15 colon): > 100 µM
